Our source for the TGI and GI50 values is PubChem BioAssay (NCI).

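How tested: cells in 96-well plates exposed to compound for 48 hours at five concentrations. GI50 is the concentration that inhibits growth by half. The concentration for full growth arrest is given as TGI.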

Holding throughout (assay): growth of human tumour cells (NCI), 48 h
Assay [1] has as its system IGROV1 ovarian.
The test system of assay [2] is LOX IMVI melanoma.
The subject of assay [3] is HCT-15 colon.
Assay [4] has as its system 786-0 renal.
The subject of assay [5] is UACC-257 melanoma.
For assay [6], the system named is NCI-H522 lung.
Assay [7] has as its system SK-MEL-28 melanoma.
Assay [8] concerns RXF 393 renal.
Assay [9] relates to NCI-H23 lung.

For the compound `CCOC(=O)CC[C@H](N)C(=O)N[C@H](Cc1ccc(N(CCCl)CCCl)cc1)C(=O)OCC`, the TGI was 9.37 µM in assay [1]; above 39.1 µM in assay [2]; 10.6 µM in assay [3]; 5.32 µM in assay [4]; above 49.2 µM in assay [5]; 6.76 µM in [6]. Further, the TGI in [7] is above 60.7 µM; in [8], 3.66 µM; in [9], 4.29 µM.

In the case of `Cc1cc(O)c(C(C)C)cc1N=Cc1ccccc1O`, the TGI is 22.4 µM in assay [1]; above 84.3 µM in [2]; above 59.5 µM in [3]; 26.3 µM in assay [4]; 24.4 µM in assay [5]; 17.2 µM in assay [6]. Further, the TGI in [7] came out at 31.4 µM; in [8], 2.64 µM; in [9] it was 37.9 µM.

As to `C=CC1(c2ccc(OC)cc2)OCCCO1`, the TGI in [1], in [2], in [3], in [4], in assay [5] and in assay [6] was above 100 µM in each case. Further, the TGI in [7], in assay [8] and in assay [9] was above 100 µM throughout.

Regarding `CC(=O)N(CN1C(=O)CCC1C(=O)O)c1ccccc1Cl` (centres undefined), the TGI in assay [1], in [2], in assay [3], in [4], in [5] and in assay [6] was above 100 µM throughout. For the same compound, the TGI in assay [7], in assay [8] and in [9] was above 100 µM throughout.

On to `COc1ccc(C[C@@H]2OC3(C=CC(=O)C=C3)O[C@H]2Cc2ccc(OC)cc2)cc1`, for which the TGI in [1] is 1.16 µM; in assay [2] it was 0.377 µM; in assay [3] it was 0.77 µM; in [4], 0.412 µM; in assay [5] it was 3.28 µM; in assay [6], 0.33 µM. For the same compound, the TGI in assay [7] came out at 3.13 µM; in assay [8], 0.79 µM; in assay [9] it was 3.53 µM.

For the compound `O=C(Oc1cccc(Cl)c1)c1cc2cc(CCl)ccc2oc1=O`, the TGI in assay [1] was above 100 µM; in assay [2], above 100 µM; in [3], above 100 µM; in assay [4], above 100 µM; in [5] it was 31.3 µM; in assay [6], 49.5 µM. Besides, the TGI in assay [7] is above 100 µM; in [8], 62.7 µM; in assay [9], above 100 µM.

As for `C#CCCCC(=O)N(C(=O)CS(=O)CC)c1ccccc1` (centres undefined), the TGI in assay [1], in assay [2], in assay [3], in [4], in assay [5] and in assay [6] was above 100 µM each time. Moreover, the TGI in [7], in assay [8] and in assay [9] was above 100 µM each time.

Turning to `CC1(C)c2ccccc2C(O)C12CCC(=O)CC2` (centres undefined), the TGI in [1], in [2], in [3], in [4], in assay [5] and in [6] was above 100 µM each time. Also, the TGI is above 100 µM in assay [7], 30.8 µM in assay [8] and above 100 µM in assay [9].

For `CN(C)CCNc1nc2c(no[n+]2[O-])c2ccccc12`, the TGI in assay [1] turned out to be 53 µM; in [2] it was 35.1 µM; in assay [3] it was 57.4 µM; in assay [4], 99 µM; in assay [5], 34.1 µM; in assay [6], 65.4 µM. Besides, the TGI in assay [7] is above 100 µM; in assay [8] it was 38.6 µM; in [9] it was above 100 µM.

`C=C1c2nc3ccccc3n2C=C(c2ccc(OC)cc2)N1c1ccc(OCCN2CCOCC2)cc1`: the TGI in assay [1] is above 100 µM; in [2] it was above 100 µM; in assay [3], above 100 µM; in assay [4], above 100 µM; in assay [5], 17.6 µM; in assay [6], 3.63 µM. Further, the TGI in [7], in [8] and in [9] was above 100 µM each time.

As for `CC1CN=C(c2ccc(COc3ccc(C4=NCC(C)N4)cc3)cc2)N1` (centres undefined), the TGI in assay [1] is above 100 µM; in [2], above 100 µM; in assay [3], above 100 µM; in [4], above 100 µM; in assay [5], 68.3 µM; in assay [6], above 100 µM. Besides, the TGI in assay [7], in assay [8] and in [9] was above 100 µM each time.

In the case of `Cc1ccc2c(=O)c(-c3n[nH]c(=S)s3)c[nH]c2n1`, the TGI in assay [1], in assay [2], in assay [3], in assay [4], in assay [5] and in [6] was above 100 µM in each case. The TGI in assay [7], in [8] and in assay [9] was above 100 µM throughout.

Consider `CCCCCCCCCCCCCCCCP(=O)([O-])OCC[N+](C)(C)C`, for which the TGI in assay [1] was determined as 7.2 µM; in assay [2], 29 µM; in assay [3], 16.7 µM; in assay [4], 19.9 µM; in assay [5], 32.7 µM; in [6], 42.6 µM. The figures for the TGI in assay [7], in [8] and in assay [9] were 33.8 µM, 15 µM and 40 µM, respectively.

As to `CC(=O)OCC1OC(N2C(S)=C(C#N)C(c3ccco3)C(C(C)=O)=C2c2ccccc2)C(OC(C)=O)C(OC(C)=O)C1OC(C)=O` (centres undefined), the TGI in assay [1], in assay [2], in assay [3], in assay [4], in assay [5] and in assay [6] was above 100 µM in each case. Also, the TGI in assay [7], in assay [8] and in [9] was above 100 µM each time.

Regarding `O=C(O)CC(O)(C(=O)O)C(O)C(=O)O` (centres undefined), the TGI in [1], in [2], in assay [3], in [4], in assay [5] and in assay [6] was above 1000 µM in each case. Moreover, the TGI in assay [7], in assay [8] and in assay [9] was above 1000 µM throughout.

Regarding `CN1C(=O)N(C)C2(CCN(CCCCCCF)CC2)C1=O`, the TGI in [1], in assay [2], in assay [3], in assay [4], in [5] and in assay [6] was above 100 µM throughout. Besides, the TGI in assay [7], in assay [8] and in assay [9] was above 100 µM in each case.

`COc1cc2c(cc1OCCCCCOc1cc3c(cc1OC)C(=O)N1CCC[C@H]1CN3)N=C[C@@H]1CCCN1C2=O`: the TGI is 21.3 µM in [1]; 3.06 µM in assay [2]; 43.8 µM in assay [3]; 63.2 µM in assay [4]; 31.9 µM in assay [5]; 3.65 µM in assay [6]. The TGI in [7] was found to be 28.2 µM; in assay [8], 72 µM; in [9], 20.5 µM.

For the compound `OCC(O)C(O)C(O)C(O)/C=N/Nc1nc(O)c(/C=C2\C=Nc3ccccc32)[nH]1` (centres undefined), the TGI in assay [1], in [2], in assay [3], in [4], in assay [5] and in [6] was above 100 µM each time. The TGI in assay [7], in [8] and in assay [9] was above 100 µM in each case.

As for `C#CCOC(=O)C(N)CCSC` (centres undefined), the TGI in assay [1], in assay [2], in [4], in [5], in assay [6] and in assay [7] was above 100 µM throughout. In addition, the TGI in [8] and in assay [9] was above 100 µM in each case.

Turning to `C=CCN1CCC2(CC1)NC(=O)c1ccccc1O2`, the TGI in assay [1], in [2], in assay [3], in assay [4], in assay [5] and in assay [6] was above 100 µM each time. Also, the TGI in [7], in [8] and in [9] was above 100 µM each time.

With `CC[C@H](C)C1=C(OC(C)=O)[N@+]2([O-])Oc3ccc(-c4c(OC(C)=O)c(OC(C)=O)c(-c5ccc(OC(C)=O)cc5)c(OC(C)=O)c4OC(C)=O)cc3O[C@]2([C@@H](C)CC)C(=O)N1OC(C)=O`, the TGI in [1] was 27.6 µM; in assay [2], 22.1 µM; in [3], above 50 µM; in assay [4], 33.8 µM; in assay [5], above 50 µM; in [6], 16 µM. Besides, the TGI in assay [7], in assay [8] and in assay [9] was above 50 µM in each case.

In the case of `CSC1=C(C(=O)Nc2ccccc2)C(N)=NC1=O`, the TGI in assay [2], in [3], in assay [4], in [5], in [6] and in assay [7] was above 100 µM each time. Moreover, the TGI in [8] and in assay [9] was above 100 µM each time.

As to `Cc1sc2nc3n(c(=O)c2c1C)N=C(c1ccc([N+](=O)[O-])cc1)CS3`, the TGI in assay [2], in assay [3], in assay [4], in assay [5], in assay [6] and in assay [7] was above 100 µM in each case. Besides, the TGI in [8] and in [9] was above 100 µM throughout.

Turning to `CC(/C=N/NC1=NCCCN1)=N\NC1=NCCCN1`, the TGI in assay [1], in [2], in assay [3], in [4], in assay [5] and in assay [6] was above 100 µM in each case. The TGI in assay [7], in [8] and in [9] was above 100 µM throughout.

As to `COc1ccc2[nH]c(O)c(/C=c3/cc4c(c(-c5ccc(F)cc5)n3)=Nc3ccccc3-4)c2c1`, the GI50 is 19.6 µM in [1]; 1.64 µM in [2]; 1.91 µM in assay [3]; 6.77 µM in [5]; 1.86 µM in [6]; 1.92 µM in assay [7]. The GI50 in assay [8] is 2.25 µM; in [9], 2.58 µM. In addition, the TGI is 48.8 µM in assay [1]; 3.2 µM in assay [2]; 4.35 µM in assay [3]; 21 µM in [5]; 5.19 µM in assay [6]; 4.58 µM in assay [7]. For the same compound, the figures for the TGI in assay [8] and in [9] were 7.53 µM and 10.9 µM, respectively.

On to `COC(=O)C(Cc1nc2ccccc2[nH]c1=O)C(=O)C(=O)Nc1cc(C(F)(F)F)ccc1Cl` (centres undefined), for which the TGI is 25.3 µM in [1]; 31.5 µM in [2]; 26.7 µM in [3]; 25.2 µM in assay [4]; above 100 µM in [5]; 19 µM in assay [6]. In addition, the TGI in assay [7] was above 100 µM; in [8] it was 46.3 µM; in assay [9] it was 30.4 µM.

Consider `Cc1cc(C)c(N=Nc2c(O)c(S(=O)(=O)O)cc3cc(S(=O)(=O)O)ccc23)cc1C`, for which the TGI in [1], in [2], in assay [3], in [4], in assay [5] and in assay [6] was above 100 µM throughout. Also, the TGI in assay [7], in [8] and in assay [9] was above 100 µM in each case.

As to `Nc1ccc(-c2nc3ccccc3s2)cc1Br`, the TGI in assay [1], in [2], in assay [3], in [4], in assay [5] and in [6] was above 100 µM each time. The TGI in assay [7], in assay [8] and in assay [9] was above 100 µM in each case.

For the compound `COc1cc(C=O)cc(C=Nc2ccc(S(N)(=O)=O)cc2)c1O`, the TGI in [1] was above 100 µM; in assay [2], 42.7 µM; in assay [3], above 100 µM; in assay [5], 38.5 µM; in assay [6], 44.5 µM; in [7], 99 µM. In addition, the TGI in [8] is 14.5 µM; in assay [9] it was above 100 µM.
